According to ChEMBL document CHEMBL4507276 (2021):

Legend:
[1] = biological target: Protein kinase C theta type (Homo sapiens) (UniProt Q04759); conditions: Compound concentration 1000.0 nM
[2] = biological target: T1, Ephrin type-A receptor 8 (Homo sapiens) (UniProt P29322); experiment: EPHA8 Invitrogen selectivity data (BI); conditions: Compound concentration 3.0 uM
T1 sequence (whole entry): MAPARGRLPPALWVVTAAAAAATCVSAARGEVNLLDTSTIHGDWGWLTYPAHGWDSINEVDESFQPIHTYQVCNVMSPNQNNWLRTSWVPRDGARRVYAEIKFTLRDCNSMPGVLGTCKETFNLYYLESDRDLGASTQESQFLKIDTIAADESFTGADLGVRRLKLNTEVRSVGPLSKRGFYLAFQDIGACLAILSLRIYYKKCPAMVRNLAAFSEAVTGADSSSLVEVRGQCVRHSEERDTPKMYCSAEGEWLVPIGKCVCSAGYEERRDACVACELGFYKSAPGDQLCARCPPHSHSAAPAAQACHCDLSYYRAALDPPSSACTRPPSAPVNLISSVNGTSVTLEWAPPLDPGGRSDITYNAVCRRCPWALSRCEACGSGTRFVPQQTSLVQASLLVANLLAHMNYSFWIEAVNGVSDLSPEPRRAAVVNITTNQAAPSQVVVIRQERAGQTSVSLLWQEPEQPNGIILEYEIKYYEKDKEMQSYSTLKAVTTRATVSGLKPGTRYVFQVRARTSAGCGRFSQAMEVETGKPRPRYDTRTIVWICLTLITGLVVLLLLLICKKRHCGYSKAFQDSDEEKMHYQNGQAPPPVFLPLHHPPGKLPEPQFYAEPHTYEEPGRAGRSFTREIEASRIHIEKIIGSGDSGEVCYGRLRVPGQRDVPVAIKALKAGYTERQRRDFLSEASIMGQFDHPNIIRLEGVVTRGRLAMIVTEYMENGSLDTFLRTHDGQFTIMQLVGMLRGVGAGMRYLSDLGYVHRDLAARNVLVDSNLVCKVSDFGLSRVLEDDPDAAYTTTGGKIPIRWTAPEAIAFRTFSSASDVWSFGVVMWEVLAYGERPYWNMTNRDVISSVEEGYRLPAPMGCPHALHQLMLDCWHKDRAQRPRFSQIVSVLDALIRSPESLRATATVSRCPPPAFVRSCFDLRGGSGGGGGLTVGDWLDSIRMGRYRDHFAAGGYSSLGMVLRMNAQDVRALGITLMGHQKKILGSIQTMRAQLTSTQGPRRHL

[3] = biological target: Homeodomain-interacting protein kinase 3 (Homo sapiens) (UniProt Q9H422); experiment: HIPK3 Invitrogen selectivity data (BI); conditions: Compound concentration 3.0 uM
[4] = biological target: Tyrosine-protein kinase Lyn (Homo sapiens) (UniProt P07948); experiment: LYNAKINASE(H) Cerep selectivity data (BI); conditions: Compound concentration 20.0 uM
[5] = biological target: Gamma-aminobutyric acid receptor subunit alpha-1 (Homo sapiens) (UniProt P14867); experiment: GABAA1(H) Cerep selectivity data (BI); conditions: filed as agonist, Compound concentration 20.0 uM
[6] = biological target: Sodium channel regulatory subunit beta-1 (Rattus norvegicus) (UniProt Q00954); experiment: NA+/SITE2/RA Eurofins-Panlabs selectivity data (BI); conditions: Compound concentration 10.0 uM
[7] = biological target: Apelin receptor (Homo sapiens) (UniProt P35414); experiment: APJH_AGON Cerep selectivity data (BI); conditions: filed as agonist, Compound concentration 20.0 uM
[8] = biological target: LIM domain kinase 2 (Homo sapiens) (UniProt P53671); experiment: LIMK2 Invitrogen selectivity data (BI); conditions: Compound concentration 3.0 uM
[9] = biological target: Serine/threonine-protein kinase Nek6 (Homo sapiens) (UniProt Q9HC98); experiment: NEK6 Invitrogen selectivity data (BI); conditions: Compound concentration 3.0 uM
[10] = biological target: T2, Muscarinic acetylcholine receptor M1 (Homo sapiens) (UniProt P11229); experiment: M1/HU Eurofins-Panlabs selectivity data (BI); conditions: Compound concentration 10.0 uM
T2 sequence (whole entry): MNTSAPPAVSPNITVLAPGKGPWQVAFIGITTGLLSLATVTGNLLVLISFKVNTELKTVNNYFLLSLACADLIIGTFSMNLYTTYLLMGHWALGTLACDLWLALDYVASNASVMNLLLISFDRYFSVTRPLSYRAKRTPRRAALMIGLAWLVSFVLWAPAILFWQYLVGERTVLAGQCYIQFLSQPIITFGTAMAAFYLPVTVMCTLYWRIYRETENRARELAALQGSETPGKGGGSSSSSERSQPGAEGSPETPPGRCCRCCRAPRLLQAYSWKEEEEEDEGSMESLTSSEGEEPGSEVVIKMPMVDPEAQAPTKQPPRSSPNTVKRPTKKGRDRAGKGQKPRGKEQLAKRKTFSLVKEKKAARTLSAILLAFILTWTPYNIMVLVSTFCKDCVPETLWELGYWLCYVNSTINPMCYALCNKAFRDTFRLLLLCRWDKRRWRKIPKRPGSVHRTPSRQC

[11] = biological target: D(2) dopamine receptor (Homo sapiens) (UniProt P14416); experiment: D2SH_AGON Cerep selectivity data (BI); conditions: filed as agonist, Compound concentration 20.0 uM
[12] = biological target: Casein kinase I isoform alpha (Homo sapiens) (UniProt P48729); experiment: CSNK1A1 Invitrogen selectivity data (BI); conditions: Compound concentration 3.0 uM
[13] = biological target: Oxysterols receptor LXR-beta (Homo sapiens) (UniProt P55055); experiment: LXR_BETAH_AGON Cerep selectivity data (BI); conditions: filed as agonist, Compound concentration 20.0 uM
[14] = biological target: Mitogen-activated protein kinase kinase kinase 11 (Homo sapiens) (UniProt Q16584); experiment: MAP3K11 Invitrogen selectivity data (BI); conditions: Compound concentration 3.0 uM
[15] = biological target: Death-associated protein kinase 3 (Homo sapiens) (UniProt O43293); experiment: DAPK3 Invitrogen selectivity data (BI); conditions: Compound concentration 3.0 uM
[16] = biological target: T3, Dual specificity mitogen-activated protein kinase kinase 6 (Homo sapiens) (UniProt P52564); experiment: MAP2K6_S_T_E Invitrogen selectivity data (BI); conditions: Compound concentration 3.0 uM
T3 sequence (whole entry): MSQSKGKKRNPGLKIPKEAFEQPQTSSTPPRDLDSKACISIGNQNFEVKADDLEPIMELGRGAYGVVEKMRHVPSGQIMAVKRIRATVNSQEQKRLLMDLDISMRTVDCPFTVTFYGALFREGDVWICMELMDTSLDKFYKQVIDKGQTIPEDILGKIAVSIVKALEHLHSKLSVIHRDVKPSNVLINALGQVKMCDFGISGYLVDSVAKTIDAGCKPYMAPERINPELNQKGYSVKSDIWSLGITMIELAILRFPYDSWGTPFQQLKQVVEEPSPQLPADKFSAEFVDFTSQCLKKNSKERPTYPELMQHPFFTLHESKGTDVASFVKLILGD

[17] = biological target: LIM domain kinase 1 (Homo sapiens) (UniProt P53667); experiment: LIMK1 Invitrogen selectivity data (BI); conditions: Compound concentration 3.0 uM
[18] = biological target: Receptor-interacting serine/threonine-protein kinase 2 (Homo sapiens) (UniProt O43353); experiment: RIPK2 Invitrogen selectivity data (BI); conditions: Compound concentration 3.0 uM
[19] = biological target: Insulin receptor (Homo sapiens) (UniProt P06213); experiment: IRK(INSR)_CE Cerep selectivity data (BI); conditions: Compound concentration 20.0 uM
[20] = biological target: Tyrosine-protein kinase Fyn (Homo sapiens) (UniProt P06241); experiment: FYN Invitrogen selectivity data (BI); conditions: Compound concentration 3.0 uM
[21] = biological target: Tyrosine-protein kinase Yes (Homo sapiens) (UniProt P07947); experiment: YES1 Invitrogen selectivity data (BI); conditions: Compound concentration 3.0 uM
[22] = biological target: STE20-like serine/threonine-protein kinase (Homo sapiens) (UniProt Q9H2G2); experiment: SLK Invitrogen selectivity data (BI); conditions: Compound concentration 3.0 uM

Measured: residual activity

Chain of Serine/threonine-protein kinase Nek6 (Homo sapiens) (Q9HC98 whole entry): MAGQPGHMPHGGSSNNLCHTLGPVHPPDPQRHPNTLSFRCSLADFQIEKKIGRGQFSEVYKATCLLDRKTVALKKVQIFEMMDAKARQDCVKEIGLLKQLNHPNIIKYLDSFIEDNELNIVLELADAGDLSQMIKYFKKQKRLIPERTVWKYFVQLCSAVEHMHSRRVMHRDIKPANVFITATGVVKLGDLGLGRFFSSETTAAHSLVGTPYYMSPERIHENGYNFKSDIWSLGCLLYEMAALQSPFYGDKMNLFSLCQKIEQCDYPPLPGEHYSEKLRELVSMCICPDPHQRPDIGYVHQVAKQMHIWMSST
Chain of Tyrosine-protein kinase Fyn (Homo sapiens) (P06241 2-537 limits assumed): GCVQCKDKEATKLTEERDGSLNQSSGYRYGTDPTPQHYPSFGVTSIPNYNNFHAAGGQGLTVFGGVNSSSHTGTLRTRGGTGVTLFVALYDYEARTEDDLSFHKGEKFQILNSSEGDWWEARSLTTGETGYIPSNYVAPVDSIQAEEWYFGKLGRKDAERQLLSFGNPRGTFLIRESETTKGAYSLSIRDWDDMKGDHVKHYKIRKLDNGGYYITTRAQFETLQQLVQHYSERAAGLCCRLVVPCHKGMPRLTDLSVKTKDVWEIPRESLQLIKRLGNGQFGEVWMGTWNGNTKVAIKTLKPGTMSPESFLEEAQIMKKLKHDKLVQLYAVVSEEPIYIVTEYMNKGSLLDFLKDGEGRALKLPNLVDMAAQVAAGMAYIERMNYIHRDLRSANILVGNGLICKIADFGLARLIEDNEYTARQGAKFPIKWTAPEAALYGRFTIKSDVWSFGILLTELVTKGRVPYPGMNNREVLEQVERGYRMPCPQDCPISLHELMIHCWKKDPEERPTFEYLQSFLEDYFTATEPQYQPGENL
Chain of Casein kinase I isoform alpha (Homo sapiens) (P48729 2-337 limits assumed): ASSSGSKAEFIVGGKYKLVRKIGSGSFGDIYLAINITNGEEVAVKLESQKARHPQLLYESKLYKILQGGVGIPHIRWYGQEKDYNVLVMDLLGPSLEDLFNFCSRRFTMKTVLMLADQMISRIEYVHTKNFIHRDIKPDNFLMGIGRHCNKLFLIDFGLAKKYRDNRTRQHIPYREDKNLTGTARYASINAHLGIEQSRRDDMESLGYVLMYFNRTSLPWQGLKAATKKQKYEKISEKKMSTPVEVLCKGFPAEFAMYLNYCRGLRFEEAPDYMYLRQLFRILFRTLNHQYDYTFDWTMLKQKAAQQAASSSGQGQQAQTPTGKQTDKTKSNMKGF
Chain of Insulin receptor (Homo sapiens) (P06213 28-758 limits assumed): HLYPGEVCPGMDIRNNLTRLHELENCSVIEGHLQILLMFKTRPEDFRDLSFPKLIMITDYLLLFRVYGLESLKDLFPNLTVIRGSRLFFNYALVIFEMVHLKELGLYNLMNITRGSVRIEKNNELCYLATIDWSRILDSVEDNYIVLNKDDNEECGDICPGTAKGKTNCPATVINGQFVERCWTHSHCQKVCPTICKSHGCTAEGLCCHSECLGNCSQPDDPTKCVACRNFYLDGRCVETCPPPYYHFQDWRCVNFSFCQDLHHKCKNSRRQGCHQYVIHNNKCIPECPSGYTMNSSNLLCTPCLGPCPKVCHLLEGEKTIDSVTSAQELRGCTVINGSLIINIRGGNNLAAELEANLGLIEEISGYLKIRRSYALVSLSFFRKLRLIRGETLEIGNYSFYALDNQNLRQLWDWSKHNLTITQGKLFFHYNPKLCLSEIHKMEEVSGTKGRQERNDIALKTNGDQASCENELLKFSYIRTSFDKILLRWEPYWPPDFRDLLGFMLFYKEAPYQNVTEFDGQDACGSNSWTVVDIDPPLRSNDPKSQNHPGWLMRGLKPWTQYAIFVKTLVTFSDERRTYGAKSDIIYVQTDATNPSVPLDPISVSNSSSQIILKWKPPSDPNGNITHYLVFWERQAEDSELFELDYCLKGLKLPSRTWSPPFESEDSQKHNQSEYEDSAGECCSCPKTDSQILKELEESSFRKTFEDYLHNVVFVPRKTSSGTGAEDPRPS
Chain of Insulin receptor (Homo sapiens) (P06213 763-1382 limits assumed): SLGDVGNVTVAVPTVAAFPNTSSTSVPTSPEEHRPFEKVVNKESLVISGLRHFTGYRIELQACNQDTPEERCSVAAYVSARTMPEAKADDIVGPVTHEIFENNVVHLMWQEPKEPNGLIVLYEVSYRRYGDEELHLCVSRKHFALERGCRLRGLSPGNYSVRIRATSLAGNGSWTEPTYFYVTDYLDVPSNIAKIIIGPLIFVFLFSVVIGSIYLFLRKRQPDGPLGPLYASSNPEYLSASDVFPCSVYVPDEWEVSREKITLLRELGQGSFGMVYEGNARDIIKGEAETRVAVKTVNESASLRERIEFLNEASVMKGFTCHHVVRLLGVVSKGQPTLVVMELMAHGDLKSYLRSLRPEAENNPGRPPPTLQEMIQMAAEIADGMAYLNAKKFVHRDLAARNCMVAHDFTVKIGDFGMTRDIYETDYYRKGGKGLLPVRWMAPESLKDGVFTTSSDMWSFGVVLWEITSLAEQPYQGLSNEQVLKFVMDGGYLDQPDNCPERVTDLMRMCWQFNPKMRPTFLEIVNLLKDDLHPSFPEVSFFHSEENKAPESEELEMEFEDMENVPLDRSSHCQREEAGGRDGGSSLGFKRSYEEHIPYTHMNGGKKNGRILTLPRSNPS
Chain of D(2) dopamine receptor (Homo sapiens) (P14416 whole entry, canonical isoform): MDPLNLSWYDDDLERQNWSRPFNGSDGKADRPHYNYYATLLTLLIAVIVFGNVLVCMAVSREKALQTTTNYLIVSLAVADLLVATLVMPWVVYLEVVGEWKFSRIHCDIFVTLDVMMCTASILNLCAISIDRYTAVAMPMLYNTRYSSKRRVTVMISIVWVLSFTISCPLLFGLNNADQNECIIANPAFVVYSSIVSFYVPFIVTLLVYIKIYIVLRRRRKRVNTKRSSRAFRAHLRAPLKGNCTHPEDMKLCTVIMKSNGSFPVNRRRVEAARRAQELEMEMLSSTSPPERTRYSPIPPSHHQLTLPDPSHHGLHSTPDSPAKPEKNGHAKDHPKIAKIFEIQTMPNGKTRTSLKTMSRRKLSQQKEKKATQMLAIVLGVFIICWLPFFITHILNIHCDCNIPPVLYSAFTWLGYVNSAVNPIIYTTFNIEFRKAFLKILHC
Chain of LIM domain kinase 2 (Homo sapiens) (P53671 whole entry, looked up, the tested form may be a part): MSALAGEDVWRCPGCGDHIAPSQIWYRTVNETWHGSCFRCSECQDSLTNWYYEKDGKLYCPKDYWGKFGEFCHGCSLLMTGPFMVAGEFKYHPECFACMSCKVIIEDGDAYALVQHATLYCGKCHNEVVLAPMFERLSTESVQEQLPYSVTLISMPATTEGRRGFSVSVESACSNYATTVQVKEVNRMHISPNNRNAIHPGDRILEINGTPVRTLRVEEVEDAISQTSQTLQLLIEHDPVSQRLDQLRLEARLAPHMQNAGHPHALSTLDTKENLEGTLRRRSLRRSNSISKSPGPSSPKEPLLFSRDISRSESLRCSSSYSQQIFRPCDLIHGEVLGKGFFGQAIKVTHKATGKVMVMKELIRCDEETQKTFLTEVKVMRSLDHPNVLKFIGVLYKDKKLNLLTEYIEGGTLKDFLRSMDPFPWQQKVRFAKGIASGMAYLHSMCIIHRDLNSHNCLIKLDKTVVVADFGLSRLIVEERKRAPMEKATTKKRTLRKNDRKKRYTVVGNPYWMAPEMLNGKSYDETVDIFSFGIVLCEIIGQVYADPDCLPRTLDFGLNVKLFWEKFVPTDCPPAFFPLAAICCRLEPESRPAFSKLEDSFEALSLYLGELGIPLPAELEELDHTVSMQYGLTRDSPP
Chain of Sodium channel regulatory subunit beta-1 (Rattus norvegicus) (Q00954 whole entry): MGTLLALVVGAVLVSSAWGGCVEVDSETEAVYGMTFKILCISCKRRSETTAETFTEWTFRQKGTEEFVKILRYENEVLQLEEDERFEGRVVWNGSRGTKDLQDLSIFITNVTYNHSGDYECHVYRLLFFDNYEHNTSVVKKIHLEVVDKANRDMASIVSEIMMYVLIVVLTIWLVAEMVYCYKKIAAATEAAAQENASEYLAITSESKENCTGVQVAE
Chain of Oxysterols receptor LXR-beta (Homo sapiens) (P55055 whole entry): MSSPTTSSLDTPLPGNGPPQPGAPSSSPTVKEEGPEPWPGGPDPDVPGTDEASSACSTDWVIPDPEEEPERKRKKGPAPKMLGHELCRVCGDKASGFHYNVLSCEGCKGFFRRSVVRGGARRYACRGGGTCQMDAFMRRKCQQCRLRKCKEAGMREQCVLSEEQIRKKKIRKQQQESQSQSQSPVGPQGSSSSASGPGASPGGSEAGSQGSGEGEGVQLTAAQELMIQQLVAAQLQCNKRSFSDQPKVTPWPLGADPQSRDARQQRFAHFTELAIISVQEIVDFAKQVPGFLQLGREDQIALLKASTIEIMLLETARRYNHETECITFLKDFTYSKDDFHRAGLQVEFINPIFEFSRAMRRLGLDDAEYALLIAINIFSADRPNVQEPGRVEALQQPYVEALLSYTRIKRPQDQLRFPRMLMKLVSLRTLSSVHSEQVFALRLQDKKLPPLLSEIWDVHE
Chain of Death-associated protein kinase 3 (Homo sapiens) (O43293 whole entry, looked up): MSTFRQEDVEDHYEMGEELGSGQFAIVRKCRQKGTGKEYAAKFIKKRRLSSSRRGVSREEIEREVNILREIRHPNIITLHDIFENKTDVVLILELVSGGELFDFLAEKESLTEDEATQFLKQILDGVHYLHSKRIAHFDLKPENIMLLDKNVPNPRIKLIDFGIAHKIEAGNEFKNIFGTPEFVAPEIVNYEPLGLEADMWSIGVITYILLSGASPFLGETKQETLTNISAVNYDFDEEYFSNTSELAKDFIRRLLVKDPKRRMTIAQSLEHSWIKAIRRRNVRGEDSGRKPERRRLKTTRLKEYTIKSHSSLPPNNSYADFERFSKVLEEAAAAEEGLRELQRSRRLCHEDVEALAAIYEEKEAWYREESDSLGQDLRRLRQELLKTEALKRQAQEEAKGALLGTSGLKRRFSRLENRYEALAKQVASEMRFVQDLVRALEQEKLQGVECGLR

CN(C)C(=O)Cn1cc(-c2nc(C3(c4ccc(-c5cnc(N)nc5)cc4)CC3)no2)cn1 [BI 0153]
inactive: [1] 89%

CN(C)C(=O)Cn1cc(-c2nc([C@@](C)(c3ccc(-c4cnc(N)nc4)cc3)C3CC3)no2)cn1 [BI 665915]
inactive: [2] 98.5% | [3] 99% | [4] 87% | [5] 105% | [6] 84% | [7] 101% | [8] 89% | [9] 96% | [10] 90% | [11] 95% | [12] 96% | [13] 118% | [14] 96% | [15] 99% | [16] 100% | [17] 96% | [18] 91% | [19] 94% | [20] 96.5% | [21] 88.5% | [22] 99%
